Assay results published in US20230218624A1 (Urovant Sciences GmbH, priority 2017, published 2023).
Several values for one entry are separate records, joined by “and”; a condition that tells them apart may be missing. Equal entries are not always repeated. Where two headings read alike, the source gives them in different places.

How the values were obtained:
[1] = Effect of food on oral absorption; assay type: in vivo, human; details: for mean AUC0-24 with food compared to fasted state / mean Cmax with food compared to fasted state: 150 mg multiple doses, middle-aged and elderly females
β2-AR = β2-AR (Homo sapiens, UniProt P07550); test: Competition binding assay, membranes with recombinant β2-AR
[2] = human, in vivo
QTc interval [3] = details: human, in vivo, 400 mg
[4] = Dose-Cmax and dose-AUC models and simulations from Phase 1 data; design: species or system human
Procedure: (§1) Exposure, and therefore risk of adverse-events can be further reduced with a 50 mg dose.

β3-AR = β3-AR (Homo sapiens, UniProt P13945)
healthy subjects = test: Phase 1 safety data; assay type: in vivo
Procedure: as §1

QTc interval [5] = test: Thorough QT study, single oral doses
[6] = 50 mg with high-fat meal, non-Japanese young males
[7] = 50 mg with standard Japanese breakfast, Japanese young males
[8] = 150 mg multiple doses with food, middle-aged females, Day 14
[9] = multiple dose 150 mg, day 14, non-Japanese middle-aged females, fasted

Chain of β2-AR (P07550 whole entry): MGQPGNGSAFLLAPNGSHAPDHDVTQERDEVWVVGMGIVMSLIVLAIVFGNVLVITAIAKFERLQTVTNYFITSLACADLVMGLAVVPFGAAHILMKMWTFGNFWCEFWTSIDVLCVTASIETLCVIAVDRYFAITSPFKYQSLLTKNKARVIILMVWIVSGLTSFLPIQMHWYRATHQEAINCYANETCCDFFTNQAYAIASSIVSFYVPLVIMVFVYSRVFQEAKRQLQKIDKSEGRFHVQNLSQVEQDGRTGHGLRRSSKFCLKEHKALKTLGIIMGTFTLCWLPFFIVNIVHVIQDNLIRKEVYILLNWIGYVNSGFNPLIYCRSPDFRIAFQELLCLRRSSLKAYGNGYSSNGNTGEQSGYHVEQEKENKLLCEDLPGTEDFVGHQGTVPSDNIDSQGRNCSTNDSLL
Chain of β3-AR (P13945 whole entry): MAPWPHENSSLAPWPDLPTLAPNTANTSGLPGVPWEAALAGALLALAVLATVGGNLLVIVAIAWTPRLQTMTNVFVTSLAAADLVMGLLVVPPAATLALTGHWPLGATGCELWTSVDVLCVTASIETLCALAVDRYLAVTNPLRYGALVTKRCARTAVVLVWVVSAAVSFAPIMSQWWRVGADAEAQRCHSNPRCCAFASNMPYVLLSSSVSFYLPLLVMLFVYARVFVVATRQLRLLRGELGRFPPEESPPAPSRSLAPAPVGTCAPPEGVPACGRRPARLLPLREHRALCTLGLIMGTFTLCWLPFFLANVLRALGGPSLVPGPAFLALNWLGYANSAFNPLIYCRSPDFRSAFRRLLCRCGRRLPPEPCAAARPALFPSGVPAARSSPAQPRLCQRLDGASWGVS

O=C(Nc1ccc(C[C@@H]2CC[C@H]([C@H](O)c3ccccc3)N2)cc1)[C@@H]1CCc2nccc(=O)n21 [Vibegron, (6S)—N-[4-[[(2S,5R)-5-[(R)-hydroxy(phenyl)methyl]pyrrolidin-2-yl]methyl]phenyl]-4-oxo-7,8-dihydro-6H-pyrrolo[1,2-a]pyrimidine-6-carboxamide]
delay in Tmax vs fasted [1, 6]: ~1 h
reduction in AUC0-inf vs fasted [1, 6]: 46%
reduction in Cmax vs fasted [1, 6]: 67%
reduction in AUC0-inf vs fasted [1, 7]: 37%
reduction in Cmax vs fasted [1, 7]: 52%
reduction in mean AUC0-24 hr vs fasted [1, 8]: 20%
reduction in mean Cmax vs fasted [1, 8]: 47%
mean AUC0-24 with food compared to fasted state ([1]; Day 1): ~42%
mean Cmax with food compared to fasted state ([1]; Day 1): 59%
mean AUC0-24 with food compared to fasted state ([1]; Day 14): ~20%
mean Cmax with food compared to fasted state ([1]; Day 14): 43%
AUC0-24 [1, 9]: 3180 ± 925 ng·h/mL
Cmax [1, 9]: 346 ± 139 ng/mL
Ctrough [1, 9]: 62.7 ± 12.4 ng/mL
binding to β2-AR (β2-AR): does not bind
dose recovered in feces [2]: approximately 59%
dose recovered in urine [2]: ~20%
AUC, mean ± SD (QTc interval [3]): 6800 ± 2300 ng·h/mL
higher Cmax in elderly and females than healthy young males [4]: 50-70%
reduction in Cmax ([4]; dose decreased from 100 mg to 75 mg): ~40%
AUC of 75 mg lower than 200 mg single dose ([4]; estimation): ~2 fold
AUC of 75 mg lower than 400 mg single dose ([4]; estimation): ~6 fold
Cmax of 75 mg lower than 200 mg single dose ([4]; estimation): approximately 3.3 fold
Cmax of 75 mg lower than 400 mg single dose ([4]; estimation): ~9.2 fold
increase in Cmax ([4]; increase in dose from 50 to 100 mg): ~3 fold
higher exposure ([4]; subjects receiving a potent CYP3A/P-gp inhibitor): ~2 fold
mean increase in AUC vs normal renal function ([4]; subjects with moderate renal impairment): 1.6 fold
β3-AR IC50 (β3-AR): 0.086 µg/mL
tolerability (healthy subjects; Phase 1 program, single 2 to 600 mg, multiple 25 to 400 mg): generally well tolerated
orthostatic AEs (healthy subjects; vibegron 100 mg coadministered in essential hypertension on metoprolol or amlodipine): no occurrences of orthostatic AEs
AUC, mean ± SD (QTc interval [5]; single dose 200 mg): 2430 ± 974 ng·h/mL
Maximum mean placebo corrected change from baseline RR interval (QTc interval [5]; single dose 200 mg): -84.36 ms
Maximum mean placebo corrected change from baseline diastolic BP (QTc interval [5]; single dose 200 mg): 2.42 mmHg
Maximum mean placebo corrected change from baseline systolic BP (QTc interval [5]; single dose 200 mg): 2.20 mmHg
QTcF LS mean difference from placebo (QTc interval [5]; single dose 200 mg, 0.5 hour): 2.90 ms
QTcF change from baseline, LS mean (QTc interval [5]; single dose 200 mg, 0.5 hour): 1.90 ms
QTcF change from baseline, LS mean (QTc interval [5]; single dose 200 mg, 1 hour): 4.87 ms
QTcF LS mean difference from placebo (QTc interval [5]; single dose 200 mg, 1 hour (maximum)): 4.98 (3.07, 6.88) msec and 4.98 msec
QTcF LS mean difference from placebo (QTc interval [5]; single dose 200 mg, 2 hour): 2.14 ms
QTcF change from baseline, LS mean (QTc interval [5]; single dose 200 mg, 2 hour): 2.06 ms
QTcF LS mean difference from placebo (QTc interval [5]; single dose 200 mg, 3 hour): 0.40 ms
QTcF change from baseline, LS mean (QTc interval [5]; single dose 200 mg, 3 hour): 1.14 ms
QTcF LS mean difference from placebo (QTc interval [5]; single dose 200 mg, 4 hour): -0.83 ms
QTcF change from baseline, LS mean (QTc interval [5]; single dose 200 mg, 4 hour): -0.40 ms
QTcF LS mean difference from placebo (QTc interval [5]; single dose 200 mg, 6 hour): -1.26 ms
QTcF change from baseline, LS mean (QTc interval [5]; single dose 200 mg, 6 hour): -6.89 ms
QTcF LS mean difference from placebo (QTc interval [5]; single dose 200 mg, 8 hour): -1.24 ms
QTcF change from baseline, LS mean (QTc interval [5]; single dose 200 mg, 8 hour): -9.59 ms
QTcF LS mean difference from placebo (QTc interval [5]; single dose 200 mg, 10 hour): -2.67 ms
QTcF change from baseline, LS mean (QTc interval [5]; single dose 200 mg, 10 hour): -8.82 ms
QTcF LS mean difference from placebo (QTc interval [5]; single dose 200 mg, 12 hour): -3.72 ms
QTcF change from baseline, LS mean (QTc interval [5]; single dose 200 mg, 12 hour): -6.82 ms
QTcF LS mean difference from placebo (QTc interval [5]; single dose 200 mg, 23.5 hour): 0.38 ms
QTcF change from baseline, LS mean (QTc interval [5]; single dose 200 mg, 23.5 hour): -2.15 ms
Maximum mean placebo corrected change from baseline RR interval (QTc interval [5]; single dose 400 mg): -162.45 ms
Maximum mean placebo corrected change from baseline diastolic BP (QTc interval [5]; single dose 400 mg): 3.99 mmHg
Maximum mean placebo corrected change from baseline systolic BP (QTc interval [5]; single dose 400 mg): 3.97 mmHg
QTcF LS mean difference from placebo (QTc interval [5]; single dose 400 mg, 0.5 hour): 3.37 ms
QTcF change from baseline, LS mean (QTc interval [5]; single dose 400 mg, 0.5 hour): 2.37 ms
QTcF change from baseline, LS mean (QTc interval [5]; single dose 400 mg, 1 hour): 4.49 ms
QTcF LS mean difference from placebo (QTc interval [5]; single dose 400 mg, 1 hour (maximum)): 4.60 (2.71, 6.48) msec and 4.60 msec
QTcF LS mean difference from placebo (QTc interval [5]; single dose 400 mg, 2 hour): 0.81 ms
QTcF change from baseline, LS mean (QTc interval [5]; single dose 400 mg, 2 hour): 0.73 ms
QTcF LS mean difference from placebo (QTc interval [5]; single dose 400 mg, 3 hour): -1.04 ms
QTcF change from baseline, LS mean (QTc interval [5]; single dose 400 mg, 3 hour): -0.30 ms
QTcF LS mean difference from placebo (QTc interval [5]; single dose 400 mg, 4 hour): -2.96 ms
QTcF change from baseline, LS mean (QTc interval [5]; single dose 400 mg, 4 hour): -2.53 ms
